{"source": "patent US20080004282A1", "about": "“Compositions and methods for modulating gated ion channels” (PainCeptor Pharma Corporation, priority 2006, published 2008)", "system": "thermal hyperalgesia from carrageenan-induced acute paw inflammation", "experiment": "Carrageenan model, thermal hyperalgesia (Hargreaves' assay)", "format": "in vivo", "details": "rat, 20 mg/kg s.c. 30 min prior to carrageenan, 2-3 hours post-carrageenan", "procedure": "Carrageenan Model for Pain\nAcute inflammatory hyperalgesia is induced in rats by unilateral injection of […] of a 3% solution of 1-carrageenan into the plantar surface of the left hind paw 2-4 h prior to testing. Thermal nociceptive thresholds are determined according to the method described elsewhere (Hargreaves et al., 1988). Briefly, through the glass surface, a radiant heat source (8 V, 50 W projector bulb) is focused onto the plantar surface of the hind paw. The rat's paw-withdrawal latency to this stimulus is recorded to the nearest 0.1 s. Each latency score is an average of three trials, which are separated by at least 5 min. In all rats, both the injured and uninjured hind paws are similarly tested, allowing direct comparisons between inflamed and non-inflamed paws.\nFIG. 7 illustrates the effect of Compound 44 (20 mg/kg s.c.) on the thermal hyperalgesia (observed in the Hargreaves' assay) resulting from an acute paw inflammation caused by the intraplantar injection of 150 μl of a 3% solution of λ-carrageenan. Compound 44 was given 30 min prior to carrageenan injection and thermal hyperalgesia was tested 2, 3, and 4 h post carrageenan injection."}
{"smiles": "CCN1CCc2c(-c3cc(Cl)ccc3OC)cc(C#N)c(N)c2C1", "note": "[Compound 44]", "values": [{"measurement": "effect on thermal hyperalgesia", "value": "completely reversed"}]}
